Measurements as given in PubChem BioAssay AID2060604 (Molecular Pharmacology Branch, DTP, NCI, 2025).

Test system: 379773-124-R-J2-PDC complex spheroids, viability % test/control
Test: Anticancer human tumor 379773-124-R-J2-PDC patient-derived endometrial carcinoma cell line growth inhibition [CLK]
Conditions: for IC50: curve of first compound; for viability, T/C: stronger effect = lower value
Summary of the method: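 Patient-derived tumor cells grown as complex spheroids with HUVEC endothelial cells and mesenchymal stem cells, treated with drug combinations. Concentrations descend in half-log steps from near clinical Cmax, or from 10 microM if Cmax unknown.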
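Note: compound exposure lasted seven days before the viability readout.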
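Throughout, for viability, T/C: 100% = DMSO vehicle control wells.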

Structure (SMILES): CC(C)CC(NC(=O)C(Cc1ccccc1)NC(=O)c1cnccn1)B(O)O (configuration not stated) + CNC(=O)c1ccc(Nc2nc(OC3CCCC3)c3c(-c4ccc5nc(C)oc5c4)c[nH]c3n2)c(OC)c1
- IC50 (second compound 0.0316 µM): 1.54 nM
- IC50 (second compound 0.1 µM): < 0.949 nM
- IC50 (second compound 0.316 µM): < 0.949 nM
- IC50 (second compound 1 µM): < 0.949 nM
- IC50 (second compound 3.16 µM): < 0.949 nM
- IC50 (second compound 10 µM): < 0.949 nM
- viability, T/C (second compound 0.0316 µM, first compound 0.000949 µM): 81.6%
- viability, T/C (second compound 0.0316 µM, first compound 0.003 µM): 6.67%
- viability, T/C (second compound 0.0316 µM, first compound 0.00949 µM): 0.17%
- viability, T/C (second compound 0.0316 µM, first compound 0.03 µM): 0.19%
- viability, T/C (second compound 0.0316 µM, first compound 0.0949 µM): 0.13%
- viability, T/C (second compound 0.0316 µM, first compound 0.3 µM): 0.1%
- viability, T/C (second compound 0.1 µM, first compound 0.000949 µM): 33.4%
- viability, T/C (second compound 0.1 µM, first compound 0.003 µM): 3.4%
- viability, T/C (second compound 0.1 µM, first compound 0.00949 µM): 0.32%
- viability, T/C (second compound 0.1 µM, first compound 0.03 µM): 0.13%
- viability, T/C (second compound 0.1 µM, first compound 0.0949 µM): 0.12%
- viability, T/C (second compound 0.1 µM, first compound 0.3 µM): 0.09%
- viability, T/C (second compound 0.316 µM, first compound 0.000949 µM): 42.3%
- viability, T/C (second compound 0.316 µM, first compound 0.003 µM): 1.94%
- viability, T/C (second compound 0.316 µM, first compound 0.00949 µM): 0.13%
- viability, T/C (second compound 0.316 µM, first compound 0.03 µM): 0.1%
- viability, T/C (second compound 0.316 µM, first compound 0.0949 µM): 0.08%
- viability, T/C (second compound 0.316 µM, first compound 0.3 µM): 0.08%
- viability, T/C (second compound 1 µM, first compound 0.000949 µM): 31.1%
- viability, T/C (second compound 1 µM, first compound 0.003 µM): 1.88%
- viability, T/C (second compound 1 µM, first compound 0.00949 µM): 0.11%
- viability, T/C (second compound 1 µM, first compound 0.03 µM): 0.1%
- viability, T/C (second compound 1 µM, first compound 0.0949 µM): 0.08%
- viability, T/C (second compound 1 µM, first compound 0.3 µM): 0.08%
- viability, T/C (second compound 3.16 µM, first compound 0.000949 µM): 30.1%
- viability, T/C (second compound 3.16 µM, first compound 0.003 µM): 0.38%
- viability, T/C (second compound 3.16 µM, first compound 0.00949 µM): 0.11%
- viability, T/C (second compound 3.16 µM, first compound 0.03 µM): 0.09%
- viability, T/C (second compound 3.16 µM, first compound 0.0949 µM): 0.1%
- viability, T/C (second compound 3.16 µM, first compound 0.3 µM): 0.13%
- viability, T/C (second compound 10 µM, first compound 0.000949 µM): 33.1%
- viability, T/C (second compound 10 µM, first compound 0.003 µM): 0.42%
- viability, T/C (second compound 10 µM, first compound 0.00949 µM): 0.13%
- viability, T/C (second compound 10 µM, first compound 0.03 µM): 0.11%
- viability, T/C (second compound 10 µM, first compound 0.0949 µM): 0.16%
- viability, T/C (second compound 10 µM, first compound 0.3 µM): 0.12%
